Data as given in ChEMBL document CHEMBL5634109, “Synthesis and mechanism of action of new purine derivatives against triple negative breast cancer” (Eur J Med Chem, 2023).
The source made the active and inactive calls. The calls are words filed in the database; no cut-off is given here.

Columns and labels:
[1] = biological target: Dual specificity protein kinase CLK1 (Homo sapiens, UniProt P49759); assay: Inhibition of CLK1 (unknown origin)
[2] = test system: MDA-MB-231; assay: Inhibition of cell migration human MDA-MB-231 cells assessed as migration distance at 25 uM incubated for 24 hrs by wound healing assay (reference value: 642.72 micrometer); format: functional
[3] = test system: MDA-MB-231; assay: Inhibition of cell migration human MDA-MB-231 cells at 0.01 to 0.4 uM incubated for 24 hrs by DAPI staining based analysis; format: functional; conditions: dose 0.01-0.4 µM
[4] = test system: HT-29; assay: Antiproliferative activity against human HT-29 cells assessed as reduction in cell viability measured for 48 hrs by MTT assay; format: functional, cell-based; conditions: HT-29, 48 h
[5] = test system: MCF7; assay: Antiproliferative activity against human MCF7 cells assessed as reduction in cell viability measured for 48 hrs by MTT assay; format: functional, cell-based; conditions: MCF7, 48 h
[6] = Inhibition of PI3K/AKT/mTOR signaling pathway in human MDA-MB-231 cells assessed as decrease in AKT expression at 1 to 4 uM incubated for 6 hrs by Western blot analysis; format: cell-based; conditions: dose 1-4 µM
[7] = test system: NCI-H1299; assay: Antiproliferative activity against human NCI-H1299 cells assessed as reduction in cell viability measured for 48 hrs by MTT assay; format: functional, cell-based; conditions: NCI-H1299, 48 h
[8] = Hepatotoxicity in nude mouse at 10 mg/kg, ip measured for 3 days; format: toxicity, organism-based; conditions: in vivo, 72 h, time 3 day
[9] = test system: MDA-MB-468; assay: Antiproliferative activity against human MDA-MB-468 cells assessed as reduction in cell viability measured for 48 hrs by MTT assay; format: functional, cell-based; conditions: MDA-MB-468, 48 h
[10] = biological target: Cyclin-dependent kinase 7 (Homo sapiens, UniProt P50613); assay: Inhibition of CDK7 (unknown origin)
Sequence of Cyclin-dependent kinase 7 (P50613 whole entry): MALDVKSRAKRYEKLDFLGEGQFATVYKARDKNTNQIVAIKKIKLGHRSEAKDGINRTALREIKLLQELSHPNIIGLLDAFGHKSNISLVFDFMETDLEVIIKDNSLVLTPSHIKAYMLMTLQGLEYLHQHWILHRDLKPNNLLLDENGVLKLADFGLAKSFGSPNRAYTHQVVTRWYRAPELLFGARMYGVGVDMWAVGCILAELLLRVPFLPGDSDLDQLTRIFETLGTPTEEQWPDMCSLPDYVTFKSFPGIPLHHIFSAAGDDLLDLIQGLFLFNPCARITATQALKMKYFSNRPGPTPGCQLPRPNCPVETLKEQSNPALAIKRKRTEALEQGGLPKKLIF

[11] = biological target: Dual specificity tyrosine-phosphorylation-regulated kinase 1A (Homo sapiens, UniProt Q13627); assay: Inhibition of DYRK1A (unknown origin)
[12] = test system: MDA-MB-231; assay: Antitumor activity against human MDA-MB-231 cells xenografted in nude mouse assessed as inhibition of spleen metastasis in tumor at 10 mg/kg, ip measured for 3 days; format: functional, organism-based; conditions: time 3.0 day
[13] = test system: HCT-116; assay: Antiproliferative activity against human HCT-116 cells assessed as reduction in cell viability measured for 48 hrs by MTT assay; format: functional, cell-based; conditions: HCT-116, 48 h
[14] = test system: MDA-MB-231; assay: Antitumor activity against human MDA-MB-231 cells xenografted in nude mouse assessed as decrease in tumor size at 10 to 20 mg/kg, ip measured for 3 days; format: functional, organism-based; conditions: dose 10-20 mg/kg, time 3.0 day

Sequence of Dual specificity protein kinase CLK1 (P49759 whole entry): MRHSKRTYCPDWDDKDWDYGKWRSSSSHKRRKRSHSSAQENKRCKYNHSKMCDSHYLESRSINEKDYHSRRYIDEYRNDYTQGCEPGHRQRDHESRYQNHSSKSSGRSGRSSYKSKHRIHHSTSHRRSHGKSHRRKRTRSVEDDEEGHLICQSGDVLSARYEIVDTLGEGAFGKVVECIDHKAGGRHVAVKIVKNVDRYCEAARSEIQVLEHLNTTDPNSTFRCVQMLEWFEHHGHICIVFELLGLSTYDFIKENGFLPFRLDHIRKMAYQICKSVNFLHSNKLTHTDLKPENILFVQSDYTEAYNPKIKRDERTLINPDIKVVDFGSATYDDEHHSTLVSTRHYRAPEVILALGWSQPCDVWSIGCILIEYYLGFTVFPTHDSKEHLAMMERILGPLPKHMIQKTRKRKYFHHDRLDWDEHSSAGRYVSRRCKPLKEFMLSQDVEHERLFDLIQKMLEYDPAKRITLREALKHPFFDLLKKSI

IC50 [1]: 2970 nM
IC50 [4]: 4160 nM
IC50 [5]: 430 nM
IC50 [7]: 4280 nM
IC50 [9]: 2820 nM
IC50 [10]: 2320 nM
IC50 [11]: 3890 nM
IC50 [13]: 340 nM
Structure (SMILES): OCCN1CCC(C2CCN(c3nc(NCc4ccc(F)c(Cl)c4)c4ncn(CC5CC5)c4n3)CC2)CC1
Activity [2]: 15.08 um
inhibition [3]: Active
inhibition [6]: Active
Activity [8]: Non-Toxic
Activity [12]: Active
Activity [14]: Active
